Measured values taken from patent publication US20020071842A1, “Soluble CD1 compositions and uses thereof” (priority 2000, published 2002).

System: T cell clones that are not CD1d-restricted
Assay: Flow cytometric staining with lipid treated multimerized CD1d-Fc aggregates
Assay type: cell-based, human
Settings: flow cytometry; 4 T cell clones that are not CD1d-restricted
Procedure: To facilitate binding to CD1 specific T cells for detection by flow cytometry, a highly multimerized form of the CD1d fusion protein was formed using fluorescently labeled protein A molecules. Protein A molecules spontaneously associate in solution at neutral pH with immunoglobulin Fc regions, forming complexes containing four Fc molecules and two protein A molecules (4+2 complexes, reference 2). The human CD1d-Fc fusion protein was incubated with Alexa 488 dye labeled protein A, and the 4+2 complexes purified by size exclusion chromatography on a Pharmacia Superose 6 column using PBS pH 7.2 as a running buffer. The purified 4+2 aggregates were concentrated to 100 μg/ml with ovalbumin as a carrier protein. The CD1d-Fc aggregate was then pre-incubated for 24 to 48 hours at 37° C. with antigenic glycolipids dissolved in DMSO at a 40:1 molar ratio of lipid to fusion protein, or with an equivalent volume of DMSO alone as a negative control. The T cell staining was performed at room temperature or 4° C. for 20 min, at a concentration of 40 μg/ml of the lipid or control treated CD1d-Fc aggregate.
To facilitate binding to CD1 specific T cells for detection by flow cytometry, a highly multimerized form of the CD1d fusion protein is formed using fluorescently labeled protein A molecules. […]

## CCCCCCCCCCCCCCCCCCCCCCCCCC(=O)N[C@@H](CO[C@H]1O[C@H](CO)[C@H](O)[C@H](O)[C@H]1O)[C@H](O)[C@H](O)CCCCCCCCCCCCCC [α-GalCer, α-galactosylceramide]
  staining of non-CD1d-restricted T cell clones by lipid treated CD1d fusion protein: no staining
